Assay results: patent US7732412B2, “Methods of treatment using novel LHRH antagonists having improved solubility properties” (Zentaris GmbH, priority 1999, dated 2010)
Numbered stars: 1 amine (or outer) side, 2 acyl side, 3 side chain; on linkers, the order of the positions; unused ones are H or OH. Square brackets hold non-standard residues; d marks the D form. Side chains are listed from the residue outwards. Peptide text beside a SMILES is read from it. * marks the point of attachment. Triazole(1,2,4-3-CO,5-NH) = O=C(c1n[nH]c(N[*:1])n1)[*:2]; Propanoyl(3-(4-F-phenyl)) = O=C(CCc1ccc(F)cc1)*; NH(4-amidinophenyl) = N=C(N)c1ccc(N*)cc1; dPhe(4-Cl) = N[C@H](Cc1ccc(Cl)cc1)C(=O)O; d1Nal = N[C@H](Cc1cccc2ccccc12)C(=O)O; d2Nal = N[C@H](Cc1ccc2ccccc2c1)C(=O)O; d(hCit) = NC(=O)NCCCC[C@@H](N)C(=O)O; Lys(iPr) = CC(C)NCCCC[C@H](N)C(=O)O; NMeY = CN[C@@H](Cc1ccc(O)cc1)C(=O)O; d3Pal = N[C@H](Cc1cccnc1)C(=O)O; Suc = O=C(CCC(=O)[*:2])[*:1]; Nle = CCCC[C@H](N)C(=O)O; Sar = CNCC(=O)O

How the values were obtained:
[1] = test system: patients who suffer from prostate carcinoma; experiment: second clinical trial in prostate carcinoma, 13 patients, testosterone; type: in vivo, human
Description: (§1) The following data are derived from two clinical studies comprising 14 and 13 patients, respectively, who suffer from prostate carcinoma and who were treated with the compound of the invention having the formula: Ac-D-Nal(2)^1-D-Cpa^2-D-Pal(3)^3-Ser^4-N-Me-Tyr^5-D-Hci^6-Nle^7-Arg^8-Pro^9-D-Ala^10-NH2 (Ozarelix)
In the second clinical trial patients were given a single im. injection of 130 mg Ozarelix on day 1. Patients were re-treated after a waiting period of 4 weeks, and this 4 week period is considered as a treatment “Cycle”. Accordingly, dosage of 130 mg of Ozarelix was again provided to the patients in the first four week cycle of treatment (Cycle 1).
Seven out of these 13 patients were subsequently administered 130 mg Ozarelix per i.m. injection on day 29, whereas the other six patients received 100 mg Ozarelix on day 29 (Cycle 2). This schedule was repeated on day 57 accordingly (Cycle 3).
As for the administration days, testosterone levels were always determined before application of Ozarelix to the patients.

human LHRH receptor = target: T1, human LHRH receptor (Homo sapiens, UniProt P30968); experiment: functional assay for antagonistic activity, fos-Luc luciferase reporter gene, stimulation with 1 nM [D-Trp6] LHRH; type: cell-based; design: expressed in transfected cells; conditions: cells stimulated with 1 nM [D-Trp6] LHRH for 6 h; bracket = number of independent experiments
T1 sequence (P30968 1-328): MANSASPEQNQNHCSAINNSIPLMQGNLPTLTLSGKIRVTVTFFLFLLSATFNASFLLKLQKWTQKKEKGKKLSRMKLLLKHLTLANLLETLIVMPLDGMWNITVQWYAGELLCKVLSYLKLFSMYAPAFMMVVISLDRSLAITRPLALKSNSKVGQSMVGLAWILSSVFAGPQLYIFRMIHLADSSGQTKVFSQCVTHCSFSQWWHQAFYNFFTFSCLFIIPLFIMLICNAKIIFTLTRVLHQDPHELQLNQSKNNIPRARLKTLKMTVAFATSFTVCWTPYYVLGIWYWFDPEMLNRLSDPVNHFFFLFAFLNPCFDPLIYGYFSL
Description: The assay for the functional characterization of antagonistic analogs of LH-RH was carried out, with some modifications, as described in Beckers et al., “Characterization of gonadotropin-releasing hormone analogs based on a sensitive cellular luciferase reporter gene assay” (1997) Analyt. Biochem. 251, 17-23. The assay uses a reporter gene made by fusing the c-fos immediate-early gene promoter to a DNA sequence encoding luciferase (Luc). A recombinant cell line that expresses the human LH-RH. receptor is stably transfected with the fos-Luc reporter gene. Transcription of the fos-Luc fusion gene and synthesis of the Luc protein is induced in the cells in a dose-dependent manner by LH-RH and other LH-RH agonists that bind and signal through the human LH-RH receptor. Peptide LH-RH antagonists such as the compounds of the invention bind to cellular LH-RH receptors and inhibit this stimulation. The antagonistic potency (IC50) of peptide LH-RH antagonists as determined by the assay generally correlates well with the binding affinity (KD) of the LH-RH antagonists for LH-RH receptor as determined from ligand binding experiments.
Cells containing the fos-Luc reporter gene that express the human LH-RH receptor were cultured for 24 h in microtitre plates using DMEM with additives and 1% (v:v) FCS (10,000 cells per well). The cells were then stimulated with 1 nM [D-Trp^6] LHRH for 6 h. Peptide LH-RH antagonist compounds according to the invention were added before the stimulation, and the cells were lysed at the end for quantification of the cellular Luc activity. The calculation of the IC50 values from dose-effect curves was carried out by non-linear regression analysis using the Hill model (Programme EDX 2.0 from C. Grunwald, Arzneimittelwerk Dresden).
The quantification of the Luc activity was carried out in duplicate essentially as described (Promega Technical Bulletins #101/161) using the respective luciferase assay system (Promega E4030). Owing to addition of coenzyme A (CoA), an oxidation of luciferyl-CoA takes place with advantageous kinetics. After the removal of the culture medium from the microtitre plate, the cells were lysed by addition of 100 μl of lysis buffer (25 mM tris-phosphate pH 7.8, 2 mM dithiothreitol, 2 mM 1,2-diaminocyclohexane-N,N,N′,N′-tetraacetic acid (CDTA), 10% (v:v) glycerol, 1% (v:v) Triton X-100). After incubation at room temperature for 15 min, 10 μl of cell lysate were transferred into a white microtitre plate suitable for luminometric detection (Dynatech). The enzymatic reaction was initiated by addition of 50 μl of assay buffer (20 mM tricine pH 7.8, 1.07 mM (MgCO3)4Mg(OH)2, 2.67 mM MgSO4, 0.1 mM ethylene-diaminetetraacetic acid (EDTA), 33.3 mM dithiothreitol, 270 μM coenzyme A, 470 μM glow-worm (Photinus pyralis) luciferin, 530 μM rATPNa2). After one minute, the luminescence was determined for a total time of one second with a signal half-life of five minutes using the EG&G Berthold MicroLumat LB 96 P.

[2] = test system: patients who suffer from prostate carcinoma; experiment: first clinical trial in prostate carcinoma, 14 patients, testosterone and PSA; type: in vivo, human
Description: as §1
In the first clinical trial, patients were given i.m. injections of 65 mg Ozarelix on day 1 followed by another 65 mg i.m. injection on day 2. Patients were re-treated after a waiting period of 4 weeks. This 4 week period of treatment is referred to as a treatment “cycle”. Accordingly, dosage of 130 mg of Ozarelix was provided to the patients in the first four week cycle of treatment (Cycle 1).
Six out of these 14 patients were subsequently administered 65 mg Ozarelix per i.m. injection on day 29 and day 30 each, whereas the other eight patients only received 65 mg Ozarelix on day 29 (Cycle 2). This schedule was repeated on day 57/58 accordingly (Cycle 3).
As for the administration days, testosterone levels were always determined before application of ozarelix to the patients. In addition, mean change of Prostate Specific Antigen (PSA) levels were monitored 4-weekly over a period of 12 weeks. The percent change of PSA shown is the mean value for all treated patients and refers to the normalized individual baseline PSA levels before first Ozarelix administration.

CCCC[C@H](NC(=O)[C@@H](CCCCNC(N)=O)NC(=O)[C@H](Cc1ccc(O)cc1)N(C)C(=O)[C@H](CO)NC(=O)[C@@H](Cc1cccnc1)NC(=O)[C@@H](Cc1ccc(Cl)cc1)NC(=O)[C@@H](Cc1ccc2ccccc2c1)NC(C)=O)C(=O)N[C@@H](CCCNC(=N)N)C(=O)N1CCC[C@H]1C(=O)N[C@H](C)C(N)=O [Example 1, Ac-D-Nal(2)^1-D-Cpa^2-D-Pal(3)^3-Ser^4-N-Me-Tyr^5-D-Hci^6-Nle^7-Arg^8-Pro^9-D-Ala^10-NH2] (Ac-[d2Nal][dPhe(4-Cl)][d3Pal]S[NMeY][d(hCit)][Nle]RP[dA]-NH2)
Testosterone (mean) ([1]; Day 2, single 130 mg i.m. on day 1, re-treated day 29 and 57 (130 or 100 mg), pre-dose day 1 3.9 ng/mL): 0.4 ng/mL | Testosterone (mean) ([1]; Day 3, second trial, 130 mg i.m. on day 1): 0.3 ng/mL | Testosterone (mean) ([1]; Day 8, second trial): 0.1 ng/mL | Testosterone (mean) ([1]; Day 15, second trial): 0.1 ng/mL | Testosterone (mean) ([1]; Day 22, second trial): 0.1 ng/mL | Testosterone (mean) ([1]; Day 29, before application, second trial): 0.2 ng/mL | Testosterone (mean) ([1]; Day 36, second trial): 0.1 ng/mL | Testosterone (mean) ([1]; Day 43, second trial): 0.1 ng/mL | Testosterone (mean) ([1]; Day 50, second trial): 0.1 ng/mL | Testosterone (mean) ([1]; Day 57, before application, second trial): 0.2 ng/mL | Testosterone (mean) ([1]; Day 64, second trial): 0.1 ng/mL | Testosterone (mean) ([1]; Day 71, second trial): 0.1 ng/mL | Testosterone (mean) ([1]; Day 78, second trial): 0.1 ng/mL | Testosterone (mean) ([1]; Day 85, second trial): 0.3 ng/mL | testosterone values of all patients ([1]; afterwards (after day 3), second trial): < 0.5 ng/mL | treated patients hormonally castrated (testosterone <0.5 ng/mL) ([1]; day 2 (24 hours post-dose), second trial): 69% | treated patients hormonally castrated (testosterone <0.5 ng/mL) ([1]; day 3 (48 hours post-dose), second trial): 100% | IC50 (human LHRH receptor): 0.242 nM | PSA levels over the monitoring period ([2]; 12 weeks, first trial): significantly reduced | Testosterone (mean) ([2]; Day 2, 65 mg i.m. on day 1 and 2, re-treated day 29(/30) and 57(/58), pre-dose day 1 4.4 ng/mL): 0.6 ng/mL | Testosterone (mean) ([2]; Day 3, first trial, 65 mg i.m. on day 1 and 2): 0.3 ng/mL | Testosterone (mean) ([2]; Day 8, first trial): 0.2 ng/mL | Testosterone (mean) ([2]; Day 15, first trial): 0.1 ng/mL | Testosterone (mean) ([2]; Day 22, first trial): 0.1 ng/mL | Testosterone (mean) ([2]; Day 29, before application, first trial): 0.2 ng/mL | PSA [% change] (mean, versus individual baseline) ([2]; Day 29, first trial): −77 % change | Testosterone (mean) ([2]; Day 36, first trial): 0.1 ng/mL | Testosterone (mean) ([2]; Day 43, first trial): 0.1 ng/mL | Testosterone (mean) ([2]; Day 50, first trial): 0.1 ng/mL | Testosterone (mean) ([2]; Day 57, before application, first trial): 0.1 ng/mL | PSA [% change] (mean, versus individual baseline) ([2]; Day 57, first trial): −88 % change | Testosterone (mean) ([2]; Day 64, first trial): 0.1 ng/mL | Testosterone (mean) ([2]; Day 71, first trial): 0.1 ng/mL | Testosterone (mean) ([2]; Day 78, first trial): 0.1 ng/mL | PSA [% change] (mean, versus individual baseline) ([2]; Day 85, first trial): −89 % change | Testosterone (mean) ([2]; Day 85, first trial): 0.3 ng/mL | testosterone values of all patients ([2]; afterwards (after day 3), first trial): < 0.5 ng/mL | treated patients hormonally castrated (testosterone <0.5 ng/mL) ([2]; day 2 (24 hours post-dose), first trial): 57% | treated patients hormonally castrated (testosterone <0.5 ng/mL) ([2]; day 3 (48 hours post-dose), first trial): 79%

CC(C)C[C@H](NC(=O)[C@@H](CCCCNC(=O)c1nc(N)n[nH]1)NC(=O)[C@H](Cc1ccc(O)cc1)N(C)C(=O)[C@H](CO)NC(=O)[C@@H](Cc1cccc2ccccc12)NC(=O)CCc1ccc(F)cc1)C(=O)N[C@@H](CCCNC(=N)N)C(=O)N1CCC[C@H]1C(=O)N[C@H](C)C(N)=O [Example 6, 3-(4-Fluorophenyl)propionyl-D-Nal(1)^1-Ser^4-N-Me-Tyr^5-D-Lys (Atz)^6-Leu^7-Arg^8-Pro^9-D-Ala^10-NH2] ({Propanoyl(3-(4-F-phenyl))}-[d1Nal]S[NMeY][dK](Triazole(1,2,4-3-CO,5-NH))LRP[dA]-NH2)
IC50 (human LHRH receptor): 0.221 nM

CCCC[C@H](NC(=O)[C@@H](CCCCNC(=O)CCC(=O)Nc1ccc(C(=N)N)cc1)NC(=O)[C@H](Cc1ccc(O)cc1)N(C)C(=O)[C@H](CO)NC(=O)[C@@H](Cc1cccnc1)NC(=O)[C@@H](Cc1ccc(Cl)cc1)NC(=O)[C@@H](Cc1ccc2ccccc2c1)NC(C)=O)C(=O)N[C@@H](CCCNC(=N)N)C(=O)N1CCC[C@H]1C(=O)N(C)CC(N)=O [Example 7, Ac-D-Nal(2)^1-D-Cpa^2-D-Pal(3)^3-Ser^4-N-Me-Tyr^5-D-Lys(B)^6-Nle^7-Arg^8-Pro^9-Sar^10-NH2] (Ac-[d2Nal][dPhe(4-Cl)][d3Pal]S[NMeY][dK]([Suc-NH(4-amidinophenyl)])[Nle]RP[Sar]-NH2)
IC50 (human LHRH receptor): 1.3 nM

CCCC[C@H](NC(=O)[C@@H](CCCCNC(=O)CCC(=O)Nc1ccc(C(=N)N)cc1)NC(=O)[C@H](Cc1ccc(O)cc1)N(C)C(=O)[C@H](CO)NC(=O)[C@@H](Cc1cccnc1)NC(=O)[C@@H](Cc1ccc(Cl)cc1)NC(=O)[C@@H](Cc1ccc2ccccc2c1)NC(C)=O)C(=O)N[C@@H](CCCNC(=N)N)C(=O)N1CCC[C@H]1C(=O)N[C@H](C)C(N)=O [Example 8, Ac-D-Nal(2)^1-D-Cpa^2-D-Pal(3)^3-Ser^4-N-Me-Tyr^5-D-Lys(B)^6-Nle^7-Arg^8-Pro^9-D-Ala^10-NH2] (Ac-[d2Nal][dPhe(4-Cl)][d3Pal]S[NMeY][dK]([Suc-NH(4-amidinophenyl)])[Nle]RP[dA]-NH2)
IC50 (human LHRH receptor): 1.4 nM

CCCC[C@H](NC(=O)[C@@H](CCCCNC(=O)CCC(=O)Nc1ccc(C(=N)N)cc1)NC(=O)[C@H](Cc1ccc(O)cc1)N(C)C(=O)[C@H](CO)NC(=O)[C@@H](Cc1cccnc1)NC(=O)[C@@H](Cc1ccc(Cl)cc1)NC(=O)[C@@H](Cc1ccc2ccccc2c1)NC(C)=O)C(=O)N[C@@H](CCCCNC(C)C)C(=O)N1CCC[C@H]1C(=O)N(C)CC(N)=O [Example 9, Ac-D-Nal(2)^1-D-Cpa^2-D-Pal(3)^3-Ser^4-N-Me-Tyr^5-D-Lys(B)^6-Nle^7-Lys(iPr)^8-Pro^9-Sar^10-NH2] (Ac-[d2Nal][dPhe(4-Cl)][d3Pal]S[NMeY][dK]([Suc-NH(4-amidinophenyl)])[Nle][Lys(iPr)]P[Sar]-NH2)
IC50 (human LHRH receptor): 4.7 nM
